Measured values as given in patent US20030087906A1, “NITROGEN SUBSTITUTED BIARYL PURINE DERIVATIVES AS POTENT ANTIPROLIFERATIVE AGENTS” (priority 2001, published 2003).

Key:
Test in all cases: NCI 60-cell line growth inhibition assay
Assay type in all cases: cell-based
[1] = system: 786-0; conditions: Homo sapiens
[2] = system: TK-10; conditions: Homo sapiens; TK-10 (Renal)
[3] = system: HL-60(TB); conditions: Homo sapiens; HL-60(TB) (Leukemia)
[4] = system: COLO 205; conditions: Homo sapiens
[5] = system: RXF 393; conditions: Homo sapiens
[6] = system: SR; conditions: Homo sapiens
[7] = system: MOLT-4; conditions: Homo sapiens
[8] = system: LOX IMVI; conditions: Homo sapiens
[9] = system: HOP-92; conditions: Homo sapiens
[10] = system: NCI-H226; conditions: Homo sapiens
[11] = system: SK-MEL-2; conditions: Homo sapiens
[12] = system: ACHN; conditions: Homo sapiens
[13] = system: HOP-62; conditions: Homo sapiens
[14] = system: DU-145; conditions: Homo sapiens
[15] = system: BT-549; conditions: Homo sapiens
[16] = system: SW-620; conditions: Homo sapiens
[17] = system: OVCAR-4; conditions: Homo sapiens
[18] = system: HCT-116; conditions: Homo sapiens
[19] = system: UO-31; conditions: Homo sapiens
[20] = system: NCI-H522; conditions: Homo sapiens; NCI-H522 (Non-Small Cell Lung)
[21] = system: SNB-19; conditions: Homo sapiens
[22] = system: CCRF-CEM; conditions: Homo sapiens
[23] = system: MCF7; conditions: Homo sapiens
[24] = system: SK-MEL-28; conditions: Homo sapiens
[25] = system: T-47D; conditions: Homo sapiens, T47D
[26] = system: UACC-62; conditions: Homo sapiens
[27] = system: NCI-H322M; conditions: Homo sapiens
[28] = system: NCI/ADR-RES; conditions: Homo sapiens
[29] = system: PC-3; conditions: Homo sapiens
[30] = system: HS 578T; conditions: Homo sapiens
[31] = system: EKVX; conditions: Homo sapiens
[32] = system: RPMI-8226; conditions: Homo sapiens
[33] = system: OVCAR-3; conditions: Homo sapiens
[34] = system: SF-295; conditions: Homo sapiens
[35] = system: SF-268; conditions: Homo sapiens
[36] = system: A549/ATCC; conditions: Homo sapiens
[37] = system: CAKI-1; conditions: Homo sapiens; Renal, CAKI-1
[38] = system: SK-OV-3; conditions: Homo sapiens; Ovarian, SK-OV-3
[39] = system: SK-MEL-5; conditions: Homo sapiens; Melanoma, SK-MEL-5
[40] = system: MALME-3M; conditions: Homo sapiens; Melanoma, MALME-3M
[41] = system: NCI-H460; conditions: Homo sapiens; Non-Small Cell Lung, NCI-H460

CC(C)n1cnc2c(NCc3ccc(-c4ccsc4)cc3)nc(N[C@H]3CC[C@H](N)CC3)nc21 [Compound 12]
GI50 ([1]; 786-0 (Renal)): 0.0065 µM
GI50 [2]: 0.01 µM
GI50 [3]: < 0.005 µM
GI50 ([4]; COLO 205 (Colon)): < 0.005 µM
GI50 ([5]; RXF 393 (Renal)): < 0.005 µM
GI50 ([6]; SR (Leukemia)): < 0.005 µM
GI50 ([7]; MOLT-4 (Leukemia)): < 0.005 µM
GI50 ([8]; LOX IMVI (Melanoma)): < 0.005 µM
GI50 ([9]; HOP-92 (Non-Small Cell Lung)): 0.011 µM
GI50 ([10]; NCI-H226 (Non-Small Cell Lung)): 0.021 µM
GI50 ([11]; SK-MEL-2 (Melanoma)): 0.0096 µM
GI50 ([12]; ACHN (Renal)): 0.039 µM
GI50 ([13]; HOP-62 (Non-Small Cell Lung)): < 0.005 µM
GI50 ([14]; DU-145 (Prostate)): 0.017 µM
GI50 ([15]; BT-549 (Breast)): 0.041 µM
GI50 ([16]; SW-620 (Colon)): < 0.005 µM
GI50 ([17]; OVCAR-4 (Ovarian)): < 0.005 µM
GI50 ([18]; HCT-116 (Colon)): 0.0089 µM
GI50 ([19]; UO-31 (Renal)): 0.063 µM
GI50 [20]: < 0.005 µM
GI50 ([21]; SNB-19 (CNS)): 0.016 µM
GI50 ([22]; CCRF-CEM (Leukemia)): < 0.005 µM
GI50 ([23]; MCF7 (Breast)): < 0.005 µM
GI50 ([24]; SK-MEL-28 (Melanoma)): 0.01 µM
GI50 ([25]; T-47D (Breast)): 0.0088 µM
GI50 ([26]; UACC-62 (Melanoma)): 0.027 µM
GI50 ([27]; NCI-H322M (Non-Small Cell Lung)): < 0.005 µM
GI50 ([28]; NCI/ADR-RES (Breast)): 1.26 µM
GI50 ([29]; PC-3 (Prostate)): < 0.005 µM
GI50 ([30]; HS 578T (Breast)): < 0.005 µM
GI50 ([31]; EKVX (Non-Small Cell Lung)): 0.023 µM
GI50 ([32]; RPMI-8226 (Leukemia)): < 0.005 µM
GI50 ([33]; OVCAR-3 (Ovarian)): 0.012 µM
GI50 ([34]; SF-295 (CNS)): 0.018 µM
GI50 ([35]; SF-268 (CNS)): < 0.005 µM
GI50 ([36]; A549/ATCC (Non-Small Cell Lung)): < 0.005 µM

CC[C@H](CO)Nc1nc(NCc2ccc(-c3ccccc3)cc2)c2ncn(C(C)C)c2n1 [Compound 73]
GI50 ([1]; Renal, 786-0): 0.2 µM
GI50 ([4]; Colon, COLO 205): 0.28 µM
GI50 ([5]; Renal, RXF 393): 0.09 µM
GI50 [37]: 1.66 µM
GI50 ([7]; Leukemia, MOLT-4): 0.32 µM
GI50 ([9]; Non-Small Cell Lung, HOP-92): 1 µM
GI50 ([10]; Non-Small Cell Lung, NCI-H226): 0.22 µM
GI50 ([11]; Melanoma, SK-MEL-2): 0.63 µM
GI50 ([12]; Renal, ACHN): 0.32 µM
GI50 ([13]; Non-Small Cell Lung, HOP-62): 0.06 µM
GI50 ([14]; Prostate, DU-145): 7.08 µM
GI50 [38]: 0.95 µM
GI50 ([15]; Breast, BT-549): 0.25 µM
GI50 [39]: 0.25 µM
GI50 [40]: 0.27 µM
GI50 ([17]; Ovarian, OVCAR-4): 0.32 µM
GI50 ([18]; Colon, HCT-116): 0.2 µM
GI50 ([19]; Renal, UO-31): 0.06 µM
GI50 ([21]; CNS, SNB-19): 0.43 µM
GI50 ([22]; Leukemia, CCRF-CEM): 0.25 µM
GI50 ([23]; Breast, MCF7): 0.16 µM
GI50 ([24]; Melanoma, SK-MEL-28): 0.45 µM
GI50 ([25]; Breast, T-47D): 0.25 µM
GI50 [41]: 0.4 µM
GI50 ([26]; Melanoma, UACC-62): 0.3 µM
GI50 ([27]; Non-Small Cell Lung, NCI-H322M): 0.16 µM
GI50 ([28]; Breast, NCI/ADR-RES): 0.4 µM
GI50 ([29]; Prostate, PC-3): 0.35 µM
GI50 ([30]; Breast, HS 578T): 0.1 µM
GI50 ([31]; Non-Small Cell Lung, EKVX): 0.25 µM
GI50 ([32]; Leukemia, RPMI-8226): 0.03 µM
GI50 ([33]; Ovarian, OVCAR-3): 0.3 µM
GI50 ([34]; CNS, SF-295): 0.25 µM
GI50 ([35]; CNS, SF-268): 0.16 µM
GI50 ([36]; Non-Small Cell Lung, A549/ATCC): 0.03 µM

CC[C@H](CO)Nc1nc(NCc2ccc(-c3ccccn3)cc2)c2ncn(C(C)C)c2n1 [Compound 17]
GI50 ([1]; Renal, 786-0): 0.25 µM
GI50 ([4]; Colon, COLO 205): 0.05 µM
GI50 ([5]; Renal, RXF 393): 0.02 µM
GI50 ([6]; Leukemia, SR): 0.5 µM
GI50 [37]: 0.13 µM
GI50 ([7]; Leukemia, MOLT-4): 0.25 µM
GI50 ([8]; Melanoma, LOX IMVI): 0.32 µM
GI50 ([9]; Non-Small Cell Lung, HOP-92): 1.58 µM
GI50 ([10]; Non-Small Cell Lung, NCI-H226): 0.11 µM
GI50 ([12]; Renal, ACHN): 0.4 µM
GI50 ([13]; Non-Small Cell Lung, HOP-62): 0.2 µM
GI50 ([14]; Prostate, DU-145): 0.63 µM
GI50 [38]: 0.4 µM
GI50 ([15]; Breast, BT-549): 0.4 µM
GI50 [39]: 0.32 µM
GI50 [40]: 19.9 µM
GI50 ([16]; Colon, SW-620): 0.01 µM
GI50 ([17]; Ovarian, OVCAR-4): 0.32 µM
GI50 ([18]; Colon, HCT-116): 0.16 µM
GI50 ([19]; Renal, UO-31): 0.1 µM
GI50 ([21]; CNS, SNB-19): 0.14 µM
GI50 ([22]; Leukemia, CCRF-CEM): 0.16 µM
GI50 ([23]; Breast, MCF7): 0.16 µM
GI50 ([24]; Melanoma, SK-MEL-28): 0.12 µM
GI50 ([25]; Breast, T-47D): 0.13 µM
GI50 [41]: 0.41 µM
GI50 ([26]; Melanoma, UACC-62): 0.27 µM
GI50 ([27]; Non-Small Cell Lung, NCI-H322M): > 1000 µM
GI50 ([28]; Breast, NCI/ADR-RES): 0.28 µM
GI50 ([29]; Prostate, PC-3): 0.2 µM
GI50 ([30]; Breast, HS 578T): 6.31 µM
GI50 ([31]; Non-Small Cell Lung, EKVX): 2.51 µM
GI50 ([32]; Leukemia, RPMI-8226): 0.03 µM
GI50 ([33]; Ovarian, OVCAR-3): 0.65 µM
GI50 ([34]; CNS, SF-295): 0.19 µM
GI50 ([35]; CNS, SF-268): 0.04 µM
GI50 ([36]; Non-Small Cell Lung, A549/ATCC): 0.03 µM
